Measurements as given in PubChem BioAssay AID732 (Emory University Molecular Libraries Screening Center, 2007).
The source made the active and inactive calls. No rule for the calls is given here.

What follows are compounds tested on in vivo angiogenesis, blood vessel count (assay: reduction of blood vessel formation in vivo – HTS, in vivo study (AID 732;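 also: zebrafish embryos dosed at one day post fertilization; 0% = reference inhibitor and 100% = plate mean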)). Conditions: hits give low values;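 tested at 30 µM in the well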.

SMILES | vessel count % control
Brc1ccc([C@H]2CN3CCSC3=N2)cc1 | 94.7% (inactive)
CCC1(C)CC(=O)NC1=O (stereo unspecified) | 95.8% (inactive)
COc1ccc2[nH]cc(CCN)c2c1 | 108% (inactive)
CCCCCCN(CCCCCC)C(=O)Cc1c(-c2ccc(F)cc2)[nH]c2ccccc12 | 126% (inactive)
C[N+](C)(CCCCCC[N+](C)(C)CCCN1C(=O)c2cccc3cccc(c23)C1=O)CCCN1C(=O)c2cccc3cccc(c23)C1=O | 115% (inactive)
NC[C@H](O)c1ccc(O)c(O)c1 | 86.6% (inactive)
O=NN(CCCl)C(=O)NCCCl | 96.9% (inactive)
c1ccc(C2CN3CCSC3=N2)cc1 (stereo unspecified) | 95.6% (inactive)
CC(C)(C)c1cc(/C=C(\C#N)C(N)=S)cc(C(C)(C)C)c1O | 0% (inactive)
Oc1cc(O)cc(/C=C/c2ccc(O)c(O)c2)c1 | 101% (inactive)
CC12CCC3C(CCC4=C(O)C(=O)CCC43C)C1CCC2=O (stereo unspecified) | 109% (inactive)
O=c1cc(N2CCOCC2)oc2c(-c3ccccc3)cccc12 | 120% (inactive)
CC(C)(C)NCC(O)c1cc(O)cc(O)c1 (stereo unspecified) | 93.9% (inactive)
CNc1ncnc2c1ncn2[C@@H]1O[C@H](CO)[C@H](O)C1O (stereo partly specified) | 95.4% (inactive)
NCC(O)(CS(=O)(=O)O)c1ccc(Cl)cc1 (stereo unspecified) | 94.5% (inactive)
COc1cc(C(=O)OCCCN2CCCN(CCCOC(=O)c3cc(OC)c(OC)c(OC)c3)CC2)cc(OC)c1OC | 116% (inactive)
CC[C@H]1CN2CCc3cc(OC)c(OC)cc3[C@@H]2C[C@@H]1C[C@H]1NCCc2cc(OC)c(OC)cc21 | 103% (inactive)
COc1ccccc1N1CCN(CCCCNS(=O)(=O)c2cccc3c(N(C)C)cccc23)CC1 | 67.5% (inactive)
CN(C)CCOC(c1ccccc1)c1ccccc1 | 86.5% (inactive)
Cn1c(=O)[nH]c2ncn(C)c2c1=O | 95.7% (inactive)
C[N+]1(C)C2CCC1CC(OC(=O)c1c[nH]c3ccccc13)C2 (stereo unspecified) | 99.8% (inactive)
c1ccc([C@H]2CN3CCSC3=N2)cc1 | 98.4% (inactive)
COc1ccc(C2CNC(=O)C2)cc1OC1CCCC1 (stereo unspecified) | 96.6% (inactive)
N[C@@H](CS(=O)O)C(=O)O | 111% (inactive)

SMILES | vessel count % control
CCCOc1ccccc1-c1nc2n[nH]nc2c(=O)[nH]1 | 119% (inactive)
CCc1c(C(=O)OC)ncc2[nH]c3cc(OC)c(OC)cc3c12 | 129% (inactive)
CCCC(C(=O)OCCN(CC)CC)(c1ccccc1)c1ccccc1 | 98% (inactive)
N=Nc1c(-c2c(O)[nH]c3c(Cl)cc(Cl)cc23)[nH]c2ccc(Br)cc12 | 53.5% (inactive)
Nc1c(S(=O)(=O)O)cc(Nc2ccc(Nc3nc(Cl)nc(Nc4ccc(S(=O)(=O)O)cc4)n3)c(S(=O)(=O)O)c2)c2c1C(=O)c1ccccc1C2=O | 106% (inactive)
CC(=O)SCC[N+](C)(C)C | 99% (inactive)
CC(C)NC[C@H](O)COc1cccc2ccccc12 | 94.9% (inactive)
c1ccc(CN2CCC3(CCCc4ccccc43)CC2)cc1 | 128% (inactive)
CCCCCCCC/C=C\CCCCCCCC(=O)NCCO | 102% (inactive)
N=C(N)c1ccc(OCCCCCOc2ccc(C(=N)N)cc2)cc1 (tested in a mixture with another compound) | 99.1% (inactive)
Ic1ccccc1CNC1C2CCN(CC2)C1C(c1ccccc1)c1ccccc1 (stereo unspecified) | 103% (inactive)
CC(=O)NBr | 130% (inactive)
Cn1ccnc1 | 109% (inactive)
CCCN1CCC[C@@H]2Cc3nc(N)ncc3C[C@H]21 | 107% (inactive)
O=C(O)c1nn(Cc2ccc(Cl)cc2Cl)c2ccccc12 | 87.2% (inactive)
Cc1c(C)c2c(c(C)c1O)CCC(C)(CN1CCN(c3cc(N4CCCC4)nc(N4CCCC4)n3)CC1)O2 (stereo unspecified) | 99.2% (inactive)
S=C(S)OC1CC2CC1C1CCCC21 (stereo unspecified) | 86.8% (inactive)
O=C1NCN(c2ccccc2)C12CCN(CCCC(c1ccc(F)cc1)c1ccc(F)cc1)CC2 | 84.4% (inactive)
C/C(O)=C(\C#N)C(=O)Nc1cc(Br)ccc1Br | 139% (inactive)
FC(F)(F)c1cc(CO[C@H]2CCCN[C@H]2c2ccccc2)cc(C(F)(F)F)c1 | 91.5% (inactive)
C[N+](C)(C)CCOC(=O)CCC(=O)OCC[N+](C)(C)C | 94.4% (inactive)
CNc1ncnc2c1ncn2[C@H]1C[C@H](OP(=O)(O)O)[C@@H](COP(=O)(O)O)O1 | 93.2% (inactive)
N=c1nc(N2CCCCC2)cc(N)n1O | 114% (inactive)
CC(COc1ccc(/C=C/c2ccccc2)cc1)[N+](C)(C)C (stereo unspecified) | 106% (inactive)

SMILES | vessel count % control
CC1(C)NC(=O)N(c2ccc([N+](=O)[O-])c(C(F)(F)F)c2)C1=O | 91.7% (inactive)
CC1=C(CC(=O)O)c2cc(F)ccc2/C1=C\c1ccc(S(C)=O)cc1 (stereo unspecified) | 89.8% (inactive)
Oc1cc2c(c(Cl)c1O)CCNCC2c1ccccc1 (stereo unspecified) | 111% (inactive)
OC[C@H]1NC[C@@H](O)[C@@H]1O | 96% (inactive)
Nc1ccncc1 | 118% (inactive)
COc1ccc2[nH]cc(CCNC(C)=O)c2c1 | 76.5% (inactive)
NCCCCCCNS(=O)(=O)c1cccc2c(Cl)cccc12 | 117% (inactive)
C#CCN(C)CCCOc1ccc(Cl)cc1Cl | 100% (inactive)
Cc1c(CC(C)(C)C(=O)O)n(Cc2ccc(Cl)cc2)c2ccc(F)cc12 | 127% (inactive)
Clc1cnc(Oc2ccc(Oc3ncc(Cl)cc3Cl)cc2)c(Cl)c1 | 96.7% (inactive)
CS(=N)(=O)CC[C@H](N)C(=O)O (stereo partly specified) | 99.4% (inactive)
CC(C)NC[C@H](O)COc1ccc(CC(N)=O)cc1 | 86.6% (inactive)
c1ccc2nc(N3CCNCC3)ccc2c1 | 98% (inactive)
CC(=O)NCCc1c[nH]c2ccc(O)cc12 | 101% (inactive)
O=C(O)c1cc(=O)c2c(Cl)cc(Cl)cc2[nH]1 | 113% (inactive)
CCCCCCCCCCCCCCCCOCC(COCC(F)(F)F)OP(=O)(O)OCO (stereo unspecified) | 109% (inactive)
CC(C)[C@@]1(NC(=O)[C@@H]2C[C@@H]3c4cccc5[nH]cc(c45)C[C@H]3N(C)C2)O[C@@]2(O)[C@@H]3CCCN3C(=O)[C@H](Cc3ccccc3)N2C1=O | 118% (inactive)
N=C(N)SCCc1cccc(CCSC(=N)N)c1 | 106% (inactive)
CCCN(CCC)[C@H]1CCc2c(F)ccc(O)c2C1 | 93.1% (inactive)
O=[N+]([O-])c1cc(O)c(O)c([N+](=O)[O-])c1 | 89.3% (inactive)
Cn1cnc2c(NCc3ccccc3)nc(NCCO)nc21 | 98.8% (inactive)
[N-]=[N+]=Nc1ccc(C(=O)CSC[C@H](NC(=O)CC[C@H](N)C(=O)O)C(=O)NCC(=O)O)cc1 | 91.6% (inactive)
N[C@H]1CONC1=O | 93% (inactive)
COC(=O)C1=C(C)NC(C)=C(C(=O)OC)C1c1ccccc1[N+](=O)[O-] | 112% (inactive)

SMILES | vessel count % control
O=S(=O)(c1cccc2c(Cl)cccc12)N1CCCNCC1 | 109% (inactive)
CC#C[C@]1(O)CC[C@H]2[C@@H]3CCC4=CC(=O)CCC4=C3[C@@H](c3ccc(N(C)C)cc3)C[C@@]21C | 106% (inactive)
O=C1NC(O)=NC1(c1ccccc1)c1ccccc1 | 106% (inactive)
CSc1ccc2c(c1)C(N1CCN(C)CC1)Cc1ccccc1S2 (stereo unspecified) | 60.6% (inactive)
CN1CCN(C2Cc3ccccc3Sc3ccc(Cl)cc32)CC1 (stereo unspecified) | 120% (inactive)
COc1ccc2c(c1)c(CC(=O)O)c(C)n2Cc1ccc(F)cc1 | 106% (inactive)
CCCCCCCCCC(=O)NC(CN1CCOCC1)[C@H](O)c1ccccc1 (stereo partly specified) | 74% (inactive)
CCCC(=O)NCCc1c2n(c3ccc(OC)cc13)CCCc1ccccc1-2 | 92.5% (inactive)
CC(C)OC(=O)C(C)(C)Oc1ccc(C(=O)c2ccc(Cl)cc2)cc1 | 89.2% (inactive)
CN(C)S(=O)(=O)c1ccc2c(c1)/C(=C/c1cc3c([nH]1)CCCC3)C(=O)N2 | 120% (inactive)
CC(C)(C)c1ccc(S(=O)(=O)/C=C/C#N)cc1 | 0% (inactive)
CCCCN1CCC(n2c(=O)[nH]c3ccccc32)CC1 | 67.2% (inactive)
NC(=S)c1ccc[n+]([C@@H]2O[C@@H](COP(=O)([O-])OP(=O)(O)OC[C@H]3O[C@@H](n4cnc5c(N)ncnc54)C(OP(=O)(O)O)[C@H]3O)C(O)C2O)c1 (stereo partly specified) | 101% (inactive)
C[N+]1(C)CCC(OC(=O)C(c2ccccc2)c2ccccc2)CC1 | 91.5% (inactive)
CCCC[C@@]1(C2CCCC2)Cc2cc(OCC(=O)O)c(Cl)c(Cl)c2C1=O | 121% (inactive)
C[C@H](Cc1ccc2c(c1)OC(C(=O)O)(C(=O)O)O2)NC[C@H](O)c1cccc(Cl)c1 | 98.2% (inactive)
COC(=O)[C@H]1[C@H]2C[C@H]3c4[nH]c5ccccc5c4CCN3C[C@H]2CC[C@@H]1O | 110% (inactive)
c1ccc2sc(C3(N4CCCCC4)CCCCC3)cc2c1 | 93.4% (inactive)
O=C(O)CCCC[C@@H]1CCSS1 | 100% (inactive)
O=C1C(c2c(O)[nH]c3c(Cl)cc(Cl)cc23)=Nc2ccccc21 | 60.2% (inactive)
COC(=O)c1c(C)[nH]c(C)c1C(=O)c1ccccc1Cc1ccccc1 | 102% (inactive)
CC(C)c1ccc2c(c1)c(SC(C)(C)C)c(CC(C)(C)C(=O)O)n2Cc1ccc(Cl)cc1 | 99.4% (inactive)
CC1=NN=C(c2ccc(N)cc2)c2cc3c(cc2C1)OCO3 | 96.1% (inactive)
O=C(O)c1ccccc1Nc1ccccc1 | 109% (inactive)
